Assays:
NCI-H292 [1] = experiment: cells; type: functional, cell-based; conditions: Homo sapiens, NCI-H292, 72 h
Description: Growth inhibition of human NCI-H292 cells in FBS containing medium after 72 hrs using compound after sonication in presence of LDL by MTT assay

NCI-H292 [2] = experiment: cells; type: functional, cell-based; conditions: Homo sapiens, NCI-H292, 72 h; remark: listed apart in the source
Description: Growth inhibition of human NCI-H292 cells after 72 hrs by MTT assay

NCI-H292 [3] = experiment: cells; type: functional, cell-based; conditions: Homo sapiens, NCI-H292, 72 h; remark: listed apart in the source
Description: Growth inhibition of human NCI-H292 cells in LDL depleted FBS containing medium after 72 hrs using compound after sonication in presence of LDL by MTT assay

NCI-H292 [4] = experiment: cells; type: functional, cell-based; conditions: Homo sapiens, NCI-H292, 72 h; remark: listed apart in the source
Description: Growth inhibition of human NCI-H292 cells after 72 hrs in presence of LDL by MTT assay

[5] = Drug metabolism in human NCI-H292 cells assessed as compound hydrolysis by measuring increase in 4-amino SAHA formation after 30 mins by HPLC-ESI-MS analysis; type: ADME, cell-based; conditions: nci-h292, 0.5 h
[6] = Solubility of the compound in aqueous solution at 500 uM in presence of LDL; type: physicochemical; conditions: buffer
[7] = Solubility of the compound in aqueous solution at 20 uM; type: physicochemical; conditions: buffer

Row | Compound | IC50 (NCI-H292 [1]) | IC50 (NCI-H292 [2]) | IC50 (NCI-H292 [3]) | IC50 (NCI-H292 [4]) | Drug metabolism [5] | solubility [6] | solubility [7]
1 | Nc1ccc(NC(=O)CCCCCCC(=O)NO)cc1 | 14.7 µM | 2.77 µM | 7.8 µM | 14.9 µM | – | – | –
2 | CC(C)CCC[C@@H](C)[C@H]1CC[C@H]2[C@@H]3CC=C4C[C@@H](OC(=O)Nc5ccc(NC(=O)CCCCCCC(=O)NO)cc5)CC[C@]4(C)[C@H]3CC[C@]12C | > 500 µM | > 500 µM | 91.2 µM | > 500 µM | Metabolite_Detected | Soluble | Insoluble

Source: ChEMBL document CHEMBL4002620, “Synthesis of Vorinostat and cholesterol conjugate to enhance the cancer cell uptake selectivity” (Bioorg Med Chem Lett, 2017)
